Columns and labels:
Histone deacetylase = assay: Inhibition of HDAC in human HeLa nuclear extract; assay type: protein assay
Histone deacetylase 1 [1] = target: T1, Histone deacetylase 1 (Homo sapiens, UniProt Q13547); assay: Inhibition of recombinant human HDAC1
[2] = target: T2, Protein deacetylase HDAC6 (Homo sapiens, UniProt Q9UBN7); assay: Inhibition of recombinant human HDAC6
T2 sequence (Q9UBN7 whole entry): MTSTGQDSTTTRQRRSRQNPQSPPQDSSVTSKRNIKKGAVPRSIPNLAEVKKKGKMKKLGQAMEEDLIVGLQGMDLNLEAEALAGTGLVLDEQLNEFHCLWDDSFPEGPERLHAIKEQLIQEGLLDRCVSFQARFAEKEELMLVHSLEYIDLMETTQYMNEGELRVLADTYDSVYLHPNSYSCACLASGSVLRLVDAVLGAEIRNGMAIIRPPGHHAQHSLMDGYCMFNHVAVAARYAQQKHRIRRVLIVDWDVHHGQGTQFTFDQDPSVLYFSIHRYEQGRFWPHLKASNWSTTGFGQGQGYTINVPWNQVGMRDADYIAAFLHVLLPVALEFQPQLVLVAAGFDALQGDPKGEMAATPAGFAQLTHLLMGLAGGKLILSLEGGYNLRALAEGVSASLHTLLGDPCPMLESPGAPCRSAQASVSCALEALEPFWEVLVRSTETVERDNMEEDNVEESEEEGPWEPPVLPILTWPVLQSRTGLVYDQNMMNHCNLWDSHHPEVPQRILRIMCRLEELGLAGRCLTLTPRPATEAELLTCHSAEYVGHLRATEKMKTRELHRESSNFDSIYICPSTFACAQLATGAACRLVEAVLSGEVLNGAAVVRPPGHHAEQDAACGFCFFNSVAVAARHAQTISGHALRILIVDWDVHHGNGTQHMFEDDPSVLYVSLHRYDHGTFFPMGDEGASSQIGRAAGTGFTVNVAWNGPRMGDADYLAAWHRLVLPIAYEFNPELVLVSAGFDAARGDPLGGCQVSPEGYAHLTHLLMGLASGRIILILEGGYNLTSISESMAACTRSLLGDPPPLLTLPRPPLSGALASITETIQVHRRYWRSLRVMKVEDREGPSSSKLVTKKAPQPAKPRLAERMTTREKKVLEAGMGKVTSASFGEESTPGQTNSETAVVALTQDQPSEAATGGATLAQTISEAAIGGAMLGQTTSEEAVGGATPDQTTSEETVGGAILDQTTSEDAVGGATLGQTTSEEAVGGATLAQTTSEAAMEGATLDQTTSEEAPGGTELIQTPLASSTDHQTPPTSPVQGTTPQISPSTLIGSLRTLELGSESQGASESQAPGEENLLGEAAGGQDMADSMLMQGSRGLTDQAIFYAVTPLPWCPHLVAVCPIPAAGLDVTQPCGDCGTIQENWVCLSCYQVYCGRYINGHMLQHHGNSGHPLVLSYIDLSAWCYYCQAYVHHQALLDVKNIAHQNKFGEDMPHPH

[3] = Retention time of the compound; assay type: physicochemical
Histone deacetylase 1 [4] = target: T1, Histone deacetylase 1; assay: Inhibition of HDAC1 (unknown origin)
Histone deacetylase 2 = Histone deacetylase 2 (Homo sapiens, UniProt Q92769); assay: Inhibition of HDAC2 (unknown origin)
Chain of Histone deacetylase 2 (Q92769 whole entry): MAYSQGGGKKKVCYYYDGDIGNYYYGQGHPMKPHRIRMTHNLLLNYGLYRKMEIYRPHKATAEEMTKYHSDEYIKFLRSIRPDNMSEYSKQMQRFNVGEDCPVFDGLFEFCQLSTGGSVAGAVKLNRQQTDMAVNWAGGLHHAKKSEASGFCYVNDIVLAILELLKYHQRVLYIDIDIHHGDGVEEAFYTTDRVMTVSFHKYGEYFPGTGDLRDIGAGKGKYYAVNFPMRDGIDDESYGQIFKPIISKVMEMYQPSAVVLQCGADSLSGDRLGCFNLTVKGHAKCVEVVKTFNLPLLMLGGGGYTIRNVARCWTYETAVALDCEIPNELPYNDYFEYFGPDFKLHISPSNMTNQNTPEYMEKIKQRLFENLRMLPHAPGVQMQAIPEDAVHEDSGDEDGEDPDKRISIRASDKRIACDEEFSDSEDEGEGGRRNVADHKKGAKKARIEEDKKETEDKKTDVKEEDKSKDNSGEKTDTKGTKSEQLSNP

Histone deacetylase 3 = Histone deacetylase 3 (Homo sapiens, UniProt O15379); assay: Inhibition of HDAC3 (unknown origin)
Chain of Histone deacetylase 3 (O15379 whole entry): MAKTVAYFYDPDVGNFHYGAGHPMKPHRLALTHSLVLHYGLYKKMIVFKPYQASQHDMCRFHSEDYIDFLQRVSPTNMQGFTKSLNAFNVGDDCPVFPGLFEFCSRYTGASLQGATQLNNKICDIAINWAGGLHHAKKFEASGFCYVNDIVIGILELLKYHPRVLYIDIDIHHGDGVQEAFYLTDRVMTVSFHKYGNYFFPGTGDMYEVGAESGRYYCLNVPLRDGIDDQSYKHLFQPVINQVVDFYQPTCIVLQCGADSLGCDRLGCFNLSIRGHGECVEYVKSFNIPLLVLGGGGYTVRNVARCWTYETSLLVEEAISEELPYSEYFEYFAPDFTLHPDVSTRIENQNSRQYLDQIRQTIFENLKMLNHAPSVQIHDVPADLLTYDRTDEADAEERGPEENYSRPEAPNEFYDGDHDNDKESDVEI

Histone deacetylase 4 = Histone deacetylase 4 (Homo sapiens, UniProt P56524); assay: Inhibition of HDAC4 (unknown origin)
Chain of Histone deacetylase 4 (P56524 whole entry): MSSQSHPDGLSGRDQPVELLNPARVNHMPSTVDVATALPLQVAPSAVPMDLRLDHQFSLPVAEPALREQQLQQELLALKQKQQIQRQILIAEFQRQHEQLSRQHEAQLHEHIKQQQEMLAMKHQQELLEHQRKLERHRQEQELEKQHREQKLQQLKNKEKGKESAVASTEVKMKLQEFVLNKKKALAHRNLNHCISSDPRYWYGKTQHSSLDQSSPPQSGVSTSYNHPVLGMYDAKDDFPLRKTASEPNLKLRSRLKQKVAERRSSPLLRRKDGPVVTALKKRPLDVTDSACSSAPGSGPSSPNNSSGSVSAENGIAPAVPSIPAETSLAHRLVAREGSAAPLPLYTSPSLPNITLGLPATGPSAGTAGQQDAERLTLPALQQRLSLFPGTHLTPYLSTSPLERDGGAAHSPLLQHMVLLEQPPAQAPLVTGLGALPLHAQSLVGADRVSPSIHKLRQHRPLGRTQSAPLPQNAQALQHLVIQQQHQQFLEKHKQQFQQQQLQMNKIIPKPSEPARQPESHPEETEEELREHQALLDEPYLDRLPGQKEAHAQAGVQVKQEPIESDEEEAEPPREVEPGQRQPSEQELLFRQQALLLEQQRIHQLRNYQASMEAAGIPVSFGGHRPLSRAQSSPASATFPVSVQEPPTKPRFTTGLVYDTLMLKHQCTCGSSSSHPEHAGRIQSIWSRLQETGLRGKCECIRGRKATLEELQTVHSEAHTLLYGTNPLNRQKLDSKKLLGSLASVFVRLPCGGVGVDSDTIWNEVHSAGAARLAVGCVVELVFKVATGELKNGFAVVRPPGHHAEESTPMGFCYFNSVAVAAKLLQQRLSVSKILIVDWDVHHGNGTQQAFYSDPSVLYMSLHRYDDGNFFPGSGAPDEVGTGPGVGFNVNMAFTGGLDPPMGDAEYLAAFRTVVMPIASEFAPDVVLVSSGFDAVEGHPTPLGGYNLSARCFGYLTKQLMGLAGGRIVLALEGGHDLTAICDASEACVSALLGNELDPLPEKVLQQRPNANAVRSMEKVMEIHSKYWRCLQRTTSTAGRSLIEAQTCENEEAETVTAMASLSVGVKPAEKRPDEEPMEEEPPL

[5] = target: T2, Protein deacetylase HDAC6; assay: Inhibition of HDAC6 (unknown origin)
Histone deacetylase 8 = target: T3, Histone deacetylase 8 (Homo sapiens, UniProt Q9BY41); assay: Inhibition of HDAC8 (unknown origin)
T3 sequence (Q9BY41 whole entry): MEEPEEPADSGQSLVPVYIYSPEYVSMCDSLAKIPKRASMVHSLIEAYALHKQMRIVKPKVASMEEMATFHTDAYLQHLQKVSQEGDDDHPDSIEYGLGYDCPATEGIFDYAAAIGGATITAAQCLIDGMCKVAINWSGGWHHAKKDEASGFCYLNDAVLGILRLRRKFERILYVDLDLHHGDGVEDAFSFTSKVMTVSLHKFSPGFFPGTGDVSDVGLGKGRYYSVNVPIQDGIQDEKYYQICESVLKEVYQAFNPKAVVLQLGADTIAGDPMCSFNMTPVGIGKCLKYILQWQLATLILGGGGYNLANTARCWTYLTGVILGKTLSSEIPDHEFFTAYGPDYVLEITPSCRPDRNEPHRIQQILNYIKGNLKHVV

T1 sequence (Q13547 whole entry): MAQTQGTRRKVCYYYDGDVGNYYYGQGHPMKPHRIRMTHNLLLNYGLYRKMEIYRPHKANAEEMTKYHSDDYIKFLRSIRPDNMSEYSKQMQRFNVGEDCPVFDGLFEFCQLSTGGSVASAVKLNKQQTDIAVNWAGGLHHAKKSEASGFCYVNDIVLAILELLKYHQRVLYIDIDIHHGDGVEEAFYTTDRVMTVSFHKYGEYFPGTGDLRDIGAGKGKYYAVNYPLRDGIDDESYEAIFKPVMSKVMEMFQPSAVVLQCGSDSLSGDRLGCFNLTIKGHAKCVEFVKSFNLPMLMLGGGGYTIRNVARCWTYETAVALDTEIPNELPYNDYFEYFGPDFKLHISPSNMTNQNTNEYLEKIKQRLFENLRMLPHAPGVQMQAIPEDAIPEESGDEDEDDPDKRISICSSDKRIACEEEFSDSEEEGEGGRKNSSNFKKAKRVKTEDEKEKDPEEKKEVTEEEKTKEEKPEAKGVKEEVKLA

SMILES	IC50 (Histone deacetylase)	IC50 (Histone deacetylase 1 [1])	IC50 [2]	Retention_time [3]	IC50 (Histone deacetylase 1 [4])	IC50 (Histone deacetylase 2)	IC50 (Histone deacetylase 3)	IC50 (Histone deacetylase 4)	IC50 [5]	IC50 (Histone deacetylase 8)
CCC(C)n1nc(-c2ccc(F)cc2)cc1C(=O)NCCCCCCS (stereo unspecified)	> 10 µM	> 10 µM	> 10 µM	8.4 min						
CC(=O)SCCCCCCNC(=O)c1cc(-c2ccc(F)cc2)nn1C					0.021 µM	0.14 µM	0.068 µM	10 µM	10 µM	4.2 µM
CCCCn1nc(C(=O)NCCCCCCS)cc1-c1ccc(F)cc1	> 10 µM	> 10 µM	> 10 µM	6.79 min						
O=C(NCCS)c1cc(-c2ccc(F)cc2)on1	> 10 µM	> 10 µM	6.5 µM	2.91 min						
CCCn1nc(C(=O)NCCCCCCS)cc1-c1ccc(F)cc1	> 10 µM	> 10 µM	> 10 µM	5.2 min						
CCCn1nc(-c2ccc(F)cc2)cc1C(=O)NCCCCCCS	> 10 µM	> 10 µM	> 10 µM	6.96 min						
O=C(NCCCCS)c1cc(-c2ccc(F)cc2)on1	> 10 µM	> 10 µM	4.9 µM	4.24 min						
CCC(C)n1nc(C(=O)NCCCCCCS)cc1-c1ccc(F)cc1 (stereo unspecified)	> 10 µM	> 10 µM	> 10 µM	5.87 min						
O=C(CS)NCCCCNC(=O)c1cc(-c2ccc(F)cc2)[nH]n1	8.6 µM	> 10 µM	2.1 µM	2.94 min						
Cc1c(-c2ccc(F)cc2)nn(C)c1C(=O)NCCCCCCS	> 10 µM	> 10 µM	> 10 µM	4.77 min						
O=C(CCS)NCCCNC(=O)c1cc(-c2ccc(F)cc2)[nH]n1	> 10 µM	> 10 µM	> 10 µM	2.66 min						
O=C(CCS)NCCCCNC(=O)c1cc(-c2ccc(F)cc2)[nH]n1	> 10 µM	> 10 µM	> 10 µM	2.54 min						
Cc1c(-c2ccc(F)cc2)nn(CCCO)c1C(=O)NCCCCCCS	> 10 µM	> 10 µM	5 µM	3.71 min						

Next, values leading:

IC50 (Histone deacetylase)	IC50 (Histone deacetylase 1 [1])	IC50 [2]	Retention_time [3]	IC50 (Histone deacetylase 1 [4])	IC50 (Histone deacetylase 2)	IC50 (Histone deacetylase 3)	IC50 (Histone deacetylase 4)	IC50 [5]	IC50 (Histone deacetylase 8)	SMILES
> 10 µM	> 10 µM	> 10 µM	4.93 min							CC(C)n1nc(C(=O)NCCCCCCS)cc1-c1ccc(F)cc1
> 10 µM	> 10 µM	4.4 µM	4.08 min							Cc1c(-c2ccc(F)cc2)n[nH]c1C(=O)NCCCCCCS
0.3 µM	0.65 µM	0.21 µM	2.99 min							O=C(O)CCn1nc(-c2ccc(F)cc2)cc1C(=O)NCCCCCCS
0.17 µM	0.25 µM	0.14 µM	3.66 min							O=C(NCCCCCCS)c1cc(-c2ccc(F)cc2)nn1CCCCO
0.69 µM	0.33 µM	0.91 µM	2.86 min							O=C(NCCCCCCS)c1cc(-c2ccc(F)cc2)nn1CCO
3.1 µM	3.6 µM	0.85 µM	3.19 min							O=C(NCCCCCCS)c1cc(-c2ccc(F)cc2)n(CCCO)n1
1.9 µM	2.2 µM	1.1 µM	2.85 min							O=C(NCCCCCS)c1cc(-c2ccc(F)cc2)[nH]n1
0.54 µM	0.44 µM	0.22 µM	3.15 min							O=C(NCCCCCCS)c1cc(-c2ccc(F)cc2)n(CCCCO)n1

Source: ChEMBL document CHEMBL3758139, “Novel thiol-based histone deacetylase inhibitors bearing 3-phenyl-1H-pyrazole-5-carboxamide scaffold as surface recognition motif: Design, synthesis and SAR study” (Bioorg Med Chem Lett, 2016)
